The results in this text go back to patent publication EP0846119B1, “THIENOPYRIMIDINE DERIVATIVES, THEIR PRODUCTION AND USE AS ENDOTHELIN ANTAGONISTS” (Takeda Chemical Industries, Ltd., priority 1995, dated 1997).

pIC50: −log10 of the molar value. Read-outs that look alike come from different tables or passages of the source.

For assay [1], the target named is T1, human endothelin-A (ETA) receptors (Homo sapiens, UniProt P25101).
T1 construct: made in house; host or cells: Sf9 insect cells (membrane fractions)
T1 sequence (P25101 21-427): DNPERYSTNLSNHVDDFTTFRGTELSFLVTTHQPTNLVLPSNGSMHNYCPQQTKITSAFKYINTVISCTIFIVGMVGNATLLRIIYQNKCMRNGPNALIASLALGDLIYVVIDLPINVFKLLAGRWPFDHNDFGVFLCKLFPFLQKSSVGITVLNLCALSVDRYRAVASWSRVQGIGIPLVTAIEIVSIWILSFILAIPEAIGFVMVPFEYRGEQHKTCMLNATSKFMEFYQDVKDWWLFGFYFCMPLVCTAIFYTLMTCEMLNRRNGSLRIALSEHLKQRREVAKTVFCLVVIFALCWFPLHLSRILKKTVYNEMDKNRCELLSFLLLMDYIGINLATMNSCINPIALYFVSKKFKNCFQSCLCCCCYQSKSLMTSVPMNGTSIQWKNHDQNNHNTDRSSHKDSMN
In words: Binding Test to ETA receptor expressed in an insect cell Sf9 ([125I]endothelin-1 displacement). The procedure:
Binding Test to ETA receptor expressed in an insect cell Sf9:
Endothelin (ET) receptors were prepared by diluting fractions of insect cell (Sf9) membrane having human endothelin-A (ETA) receptors expressed, with an assay buffer {20 mM Tris-HCl, 2 mM EGTA (ethyleneglycol bls(2-aminoethylether) tetra acetic acid), 5 mM magnesium acetate, 0.1% BSA (bovine serum albumin), 0.03% NaN3, 0.5 mM PMSF (phenyl methyl sulfonyl fluoride), 20 µg/ml leupeptin, 4 µg/ml E-64 (products of the Peptide Institute, Japan), 1 µg/ml pepstatin, (pH 7.2)} respectively in a concentration of 1.4 µg/ml in the former case and 0.7 µg/ml in the latte case.
To 100 µl of each portion was added 5 nM[^125I] endothelin-1 (2 µl). A dimethylsulfoxide solution (3 µl) of the test compound was added thereto and incubated at 25°C for 60 minutes.
And, to determine the maximum binding amount (B0) and non-specific binding amount (NSB), lots to which a dimethyl sulfoxide solution (3 µl) or a dimethyl sulfoxide solution (3 µl) containing endothelin-1 (10^-3M) had been added, were also incubated.
These lots were supplemented with 0.05% CHAPS(3-[(3-chloroamidopropyl)dimethylammonio]-1-propanesulfonate)-assay buffer (1.5 ml), subjected to filtration through a glass fiber filter GF/F (trade name; product of Whatman Ltd. (England)), and then washed with the same buffer (1.5 ml)).
Radioactivity on the filter was counted in a gamma-counter to determine the Percent Maximum Binding (PMB) in accordance with the aforesaid calculation formula. The concentration causing PMB=50% was determined as IC50 value.

For assay [2], the target named is T2, human ETA 24 endothelin receptor (Homo sapiens, UniProt P25101).
T2 construct: expressed in transfected cells; host or cells: CHO cells (clone ETA 24)
T2 sequence (P25101 21-427): T1 sequence (P25101 21-427)
Put plainly: Binding Test to ETA receptor expressed in CHO cell (ET-1-stimulated [3H]arachidonic acid release). The settings on record: CHO cell expressing human ETA (ETA 24 cells), final concentration of ET-1 6.3x10^-10M, n=2. It is filed as cell-based. The method, then: Binding Test to ETA receptor expressed in CHO cell:
cells: CHO cell expressing human ETA 24 endothelin receptor, i.e. ETA 24 cells medium: DMEM 10% FCS Gln, nonessential amino acids, penicillin, streptomycin
Cells were seeded in 12 wells of 24 well plates at a density of 2x10^5 cells/well (1 ml medium/well). On the next day, [^3H]arachidonic acid was added to each well to be 250 nCi(nanocurie)/ml. On the next day, the medium was sucked from the wells by the use of an aspirator to remove free arachidonic acid and floating cells, and then 0.5 ml of medium was added. This procedure was repeated again. After allowing to stand for 30 minutes in a CO2 incubator, the medium was exchanged rapidly.
The sample of compound obtained in Example 5 or compound 16 of Example 11 was stepwise diluted with a buffer solution for dilution, containing 3.15x10^-8M endothelin-1 (ET-1) {20 mM Tris, 5 mM Mg(AcO)2, 2 mM EGTA, 0.03% NaN3, 0.1% BSA, 0.05% CHAPS}. 10 µl of the solution was added to each well (final concentration of ET-1: 6.3x10^-10M). […] After allowing to-stand for 30 minutes in the CO2 incubator, the medium was completely collected and the radio activity of [^3H]arachidonic acid released in the medium was measured by a liquid scintillation counter. IC50 values were calculated by hill plot from the concentration and relative reaction value of each sample. […]

Where [3] appears, read: Sf9 membrane fractions, [125I]endothelin-1, 25°C, 60 minutes, concentration causing PMB=50%, read-out: IC50 value: µM Human endotherin-A receptor.
Where [4] appears, read: Table 5, values recur in Table 7, read-out: Binding IC50 (µM) ETA.

In the case of `CCS(=O)(=O)NCc1c(-c2ccc(OCOC)cc2)sc2c1c(=O)n(CC(=O)O)c(=O)n2Cc1ccccc1SC` [11(16), 2,4(1H,3H)-Dioxo-6-(4-methoxymethoxyphenyl)-1-(2-methylthiobenzyl)-5-(ethanesulfonamidomethyl)thieno[2,3-d]pyrimidine-3-acetic acid], the IC50 in assay [1] (setting [3]) and in assay [1] (setting [4]) was 0.0061 µM each time. This molecule had a pIC50 in assay [2] of 6.96.
On to `COCOc1ccc(-c2sc3c(c2CNS(C)(=O)=O)c(=O)n(CC(=O)O)c(=O)n3Cc2ccccc2SC)cc1` [Example 5, 2,4(1H,3H)-dioxo-6-(4-methoxymethoxyphenyl)-1-(2-methylthiobenzyl)-5-(methanesulfonamidomethyl)thieno[2,3-d]pyrimidine-3-aretic acid], for which the IC50 in assay [1] (setting [3]) is 0.011 µM; in assay [1] (setting [4]) it was 0.0076 µM. Also, the negative logarithm of the IC50 (pIC50) in assay [2] was 6.41.
